Measured values published in ChEMBL document CHEMBL1201862, “PubChem BioAssay data set” (2004).
Activity calls are given as the source filed them.

Experiments:
[1] = biological target: T1, Ubiquitin-conjugating enzyme E2 N (Homo sapiens, UniProt P61088); assay type: functional;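 further: Dose-response confirmation in a TR-FRET assay detecting UBC13-driven polyubiquitin chain formation, inhibition measured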
T1 sequence (P61088 whole entry): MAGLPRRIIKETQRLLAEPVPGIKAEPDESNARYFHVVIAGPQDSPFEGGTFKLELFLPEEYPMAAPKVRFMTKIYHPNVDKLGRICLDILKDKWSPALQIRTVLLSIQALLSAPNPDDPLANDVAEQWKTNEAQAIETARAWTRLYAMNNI

Protein skinhead-1 = biological target: T2, Protein skinhead-1 (Caenorhabditis elegans, UniProt P34707); assay type: functional
T2 sequence (P34707 whole entry): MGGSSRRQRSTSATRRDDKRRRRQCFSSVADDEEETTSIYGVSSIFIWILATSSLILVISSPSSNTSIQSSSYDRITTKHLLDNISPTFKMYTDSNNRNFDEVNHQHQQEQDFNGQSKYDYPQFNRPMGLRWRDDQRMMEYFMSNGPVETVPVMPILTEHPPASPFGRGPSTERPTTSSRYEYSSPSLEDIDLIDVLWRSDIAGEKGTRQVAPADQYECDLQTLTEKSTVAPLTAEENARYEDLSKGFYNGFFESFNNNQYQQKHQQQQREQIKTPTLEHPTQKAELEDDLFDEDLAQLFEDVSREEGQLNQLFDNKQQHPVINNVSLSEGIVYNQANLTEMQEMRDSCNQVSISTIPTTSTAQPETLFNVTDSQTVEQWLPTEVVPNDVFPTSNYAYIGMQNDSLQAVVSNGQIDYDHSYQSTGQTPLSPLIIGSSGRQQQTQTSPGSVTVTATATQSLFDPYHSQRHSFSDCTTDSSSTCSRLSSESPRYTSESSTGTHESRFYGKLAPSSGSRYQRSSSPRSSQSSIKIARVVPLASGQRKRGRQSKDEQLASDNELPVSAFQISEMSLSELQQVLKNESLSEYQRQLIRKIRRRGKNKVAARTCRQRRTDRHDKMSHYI

[2] = biological target: T3, Heat shock factor protein 1 (Mus musculus, UniProt P38532); assay: decrease of HSF1-responsive luciferase luminescence – cell-based, NIH3T3, dose retest, confirmation (AID 2382); assay type: functional;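 further: NIH3T3 fibroblasts with HSF1-driven luciferase reporter stressed by proteasome inhibitor MG132; luminescence from HSF1-driven luciferase expression after 8 hours of MG132 stress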
T3 sequence (P38532 whole entry): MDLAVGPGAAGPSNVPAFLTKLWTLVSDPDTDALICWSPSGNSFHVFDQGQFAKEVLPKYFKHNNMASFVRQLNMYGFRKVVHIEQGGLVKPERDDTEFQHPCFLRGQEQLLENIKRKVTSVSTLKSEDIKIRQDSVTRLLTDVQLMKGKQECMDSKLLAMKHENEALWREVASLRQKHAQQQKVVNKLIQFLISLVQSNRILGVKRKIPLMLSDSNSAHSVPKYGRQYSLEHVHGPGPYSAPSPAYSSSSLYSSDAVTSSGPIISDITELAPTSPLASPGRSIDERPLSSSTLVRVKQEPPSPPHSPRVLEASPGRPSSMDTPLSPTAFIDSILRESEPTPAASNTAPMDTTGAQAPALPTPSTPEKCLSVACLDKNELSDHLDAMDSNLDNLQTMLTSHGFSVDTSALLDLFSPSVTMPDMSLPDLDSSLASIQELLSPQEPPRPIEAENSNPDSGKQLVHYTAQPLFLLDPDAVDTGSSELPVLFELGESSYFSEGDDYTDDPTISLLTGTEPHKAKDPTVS

[3] = biological target: FAD-linked sulfhydryl oxidase ALR (Homo sapiens, UniProt P55789); assay: ALR-catalysed DTT oxidation blockers – biochemical, H2O2 detection, luminescence, cherry-pick, dose response (AID 493248)
[4] = viability of uninfected HEp-2 cells – cell-based, HTS, cytotoxicity control for RSV inhibitor project, dose response (AID 2410); assay type: functional; conditions: human respiratory syncytial virus
[5] = biological target: T3, Heat shock factor protein 1; assay: enhancement of HSF1-driven luciferase signal – cell-based, NIH3T3, luminescence, dose retest, confirmation (AID 435004); assay type: functional;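 further: stress induced by proteasome inhibitor MG132 added 30 min after compound; luciferase reporter driven by HSF1 response element in NIH3T3 cells; actives raise luminescence as potentiators of the MG132 stress response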
[6] = viability of PTEN-deleted HCT116 cells – cell-based, HCT116 PTEN knockout, dose response (AID 1047); assay type: functional;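 further: HCT116 colon tumor cells with PTEN knocked out; cells exposed to compound for 60 hours before readout; potency for loss of cell viability measured by luminescence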
[7] = viability of HCT116 lacking mutant beta-catenin – cell-based, human colon tumor, dose response (AID 1045); assay type: functional;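 further: HCT116 colon tumor cells with beta catenin knocked out; cells exposed to compound for 60 hours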
[8] = biological target: T4, Rac GTPase-activating protein 1 (Homo sapiens, UniProt Q9H0H5); assay: blockers of MgcRacGAP-driven Rac1 GTP hydrolysis – biochemical, ADP Hunter fluorescence, primary and confirmatory, confirmation (AID 624330); assay type: functional
T4 sequence (Q9H0H5 whole entry): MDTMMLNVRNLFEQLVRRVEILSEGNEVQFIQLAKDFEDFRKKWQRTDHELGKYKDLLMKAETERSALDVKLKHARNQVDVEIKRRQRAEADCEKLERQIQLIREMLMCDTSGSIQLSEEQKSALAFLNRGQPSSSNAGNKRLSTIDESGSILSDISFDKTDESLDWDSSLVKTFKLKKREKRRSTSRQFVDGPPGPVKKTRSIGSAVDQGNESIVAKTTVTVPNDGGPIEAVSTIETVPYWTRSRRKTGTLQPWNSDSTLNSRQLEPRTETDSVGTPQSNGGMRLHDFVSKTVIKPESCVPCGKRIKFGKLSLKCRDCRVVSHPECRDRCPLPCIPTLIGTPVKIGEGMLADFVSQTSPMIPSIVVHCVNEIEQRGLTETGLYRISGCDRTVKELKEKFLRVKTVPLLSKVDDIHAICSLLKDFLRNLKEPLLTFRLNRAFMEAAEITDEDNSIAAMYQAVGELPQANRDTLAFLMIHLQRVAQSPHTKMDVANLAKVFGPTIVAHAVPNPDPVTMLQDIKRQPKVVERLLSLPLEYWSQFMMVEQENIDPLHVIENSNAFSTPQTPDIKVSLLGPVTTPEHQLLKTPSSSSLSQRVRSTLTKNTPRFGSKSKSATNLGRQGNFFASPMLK

INS1 = assay: INS-1E survival protection against cytokine death – cell-based, luminescence, retest, dose response (AID 449756); assay type: functional; conditions: Rattus norvegicus;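 further: cell death triggered by IL-1 beta plus TNF-alpha plus IFN-gamma mixture; protective hits raise ATP signal compared with cytokine alone wells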
[9] = test system: Streptococcus sp. 'group A'; assay: Streptococcus pyogenes SK(-)GAS viability under kanamycin – luminescence, BacTiterGlo, confirmation, counter-screen for streptokinase expression inhibitor project, dose response (AID 1900); assay type: functional, organism-based
Streptokinase A = biological target: T5, Streptokinase A (Streptococcus pyogenes serotype M1, UniProt P10520); assay: viability-normalized secreted streptokinase activity reduction – plasminogen activation absorbance, OD405, dose response (AID 1914); assay type: functional, Streptococcus pyogenes M1 GAS;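 further: secreted streptokinase activity via plasminogen activation per viability signal from cell pellet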
T5 sequence (P10520 whole entry): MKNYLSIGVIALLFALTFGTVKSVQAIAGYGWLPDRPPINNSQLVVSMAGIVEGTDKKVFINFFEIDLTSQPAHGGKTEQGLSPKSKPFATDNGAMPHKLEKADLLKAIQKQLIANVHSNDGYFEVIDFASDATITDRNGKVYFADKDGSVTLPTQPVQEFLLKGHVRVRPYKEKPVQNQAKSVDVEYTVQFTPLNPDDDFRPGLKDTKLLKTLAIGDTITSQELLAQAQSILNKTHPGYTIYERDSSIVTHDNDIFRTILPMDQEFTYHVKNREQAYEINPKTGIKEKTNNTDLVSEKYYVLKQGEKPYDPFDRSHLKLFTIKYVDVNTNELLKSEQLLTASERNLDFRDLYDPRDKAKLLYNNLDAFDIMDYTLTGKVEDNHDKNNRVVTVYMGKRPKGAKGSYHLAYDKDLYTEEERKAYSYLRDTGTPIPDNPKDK

Streptococcus = assay: GAS UMAA2166 growth inhibition – luminescence, BacTiterGlo, counter-screen for streptokinase expression inhibitor project, dose response (AID 1915); assay type: functional, organism-based;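 further: potency for reduction of bacterial viability or growth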
Nonstructural protein 1 = Nonstructural protein 1 (Influenza A virus, UniProt Q194T2); assay type: functional, Influenza A virus (A/California/07/2009(H1N1))
Cytochrome P450 2C9 = Cytochrome P450 2C9 (Homo sapiens, UniProt P11712)
Vero = assay: cells; assay type: functional; conditions: Chlorocebus sabaeus
Large T antigen = Large T antigen (Simian virus 40, UniProt P03070); assay type: functional, Betapolyomavirus macacae;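 further: Confirmatory-stage PubChem screen for compounds that inhibit SV40 T antigen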
[10] = biological target: T6, Polyadenylate-binding protein 1 (Homo sapiens, UniProt P11940); assay: MLLE binding blockers, Cy5 peptide tracer – biochemical, fluorescence polarization, Cy5-PAM2 peptide, secondary, miRNA deadenylation inhibitor project, dose response (AID 602260); assay type: functional; conditions: read-out: IC50_Mean
[11] = biological target: T6, Polyadenylate-binding protein 1; assay: MLLE domain peptide-binding blockers, IC50 – biochemical, fluorescence polarization, FITC-PAM2 peptide, dose response (AID 602259); assay type: functional; conditions: read-out: IC50_Mean
H9c2 = assay: cells; assay type: functional, cell-based; conditions: Rattus norvegicus, H9c2, Myocardium;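 further: confirmatory concentration-response retest of ultra-high-throughput screening hits for modulation of myocardial damage; cell death induced by hydrogen peroxide oxidative stress; compound pretreatment for 60 min then peroxide exposure for 2 h; potency is for protecting the cells against peroxide damage rather than for killing them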
[12] = Luminescence Cell-Based Dose Retest to Confirm Inhibitors of Cancer Stem Cells. [Related pubchem assays (depositor defined):AID2717, AID2721]; assay type: functional; conditions: Homo sapiens

Nonstructural protein 1, sequence (Q194T2 whole entry): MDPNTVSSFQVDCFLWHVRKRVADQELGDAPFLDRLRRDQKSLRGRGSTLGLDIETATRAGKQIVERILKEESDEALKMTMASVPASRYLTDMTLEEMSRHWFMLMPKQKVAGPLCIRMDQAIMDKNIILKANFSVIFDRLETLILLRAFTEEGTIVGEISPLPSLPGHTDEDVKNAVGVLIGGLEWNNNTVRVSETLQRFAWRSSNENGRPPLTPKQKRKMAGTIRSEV
T6 sequence (P11940 whole entry, the tested form may be a part): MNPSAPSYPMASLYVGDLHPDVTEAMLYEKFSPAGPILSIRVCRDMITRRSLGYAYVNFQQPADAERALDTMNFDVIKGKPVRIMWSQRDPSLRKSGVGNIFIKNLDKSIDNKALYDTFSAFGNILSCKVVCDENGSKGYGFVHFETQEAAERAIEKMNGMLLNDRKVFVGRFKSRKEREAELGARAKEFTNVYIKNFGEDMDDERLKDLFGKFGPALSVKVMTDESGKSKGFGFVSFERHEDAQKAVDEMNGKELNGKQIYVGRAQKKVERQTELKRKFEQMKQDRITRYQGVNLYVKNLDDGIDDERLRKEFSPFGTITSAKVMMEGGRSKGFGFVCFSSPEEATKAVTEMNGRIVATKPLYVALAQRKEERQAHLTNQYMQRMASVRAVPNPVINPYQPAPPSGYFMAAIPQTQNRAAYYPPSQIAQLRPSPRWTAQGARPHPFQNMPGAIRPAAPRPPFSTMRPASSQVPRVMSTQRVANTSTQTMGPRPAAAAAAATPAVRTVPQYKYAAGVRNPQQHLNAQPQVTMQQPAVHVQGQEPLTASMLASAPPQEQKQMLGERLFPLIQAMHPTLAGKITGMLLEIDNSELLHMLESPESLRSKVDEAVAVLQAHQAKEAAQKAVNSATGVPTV
Large T antigen, sequence (P03070 whole entry): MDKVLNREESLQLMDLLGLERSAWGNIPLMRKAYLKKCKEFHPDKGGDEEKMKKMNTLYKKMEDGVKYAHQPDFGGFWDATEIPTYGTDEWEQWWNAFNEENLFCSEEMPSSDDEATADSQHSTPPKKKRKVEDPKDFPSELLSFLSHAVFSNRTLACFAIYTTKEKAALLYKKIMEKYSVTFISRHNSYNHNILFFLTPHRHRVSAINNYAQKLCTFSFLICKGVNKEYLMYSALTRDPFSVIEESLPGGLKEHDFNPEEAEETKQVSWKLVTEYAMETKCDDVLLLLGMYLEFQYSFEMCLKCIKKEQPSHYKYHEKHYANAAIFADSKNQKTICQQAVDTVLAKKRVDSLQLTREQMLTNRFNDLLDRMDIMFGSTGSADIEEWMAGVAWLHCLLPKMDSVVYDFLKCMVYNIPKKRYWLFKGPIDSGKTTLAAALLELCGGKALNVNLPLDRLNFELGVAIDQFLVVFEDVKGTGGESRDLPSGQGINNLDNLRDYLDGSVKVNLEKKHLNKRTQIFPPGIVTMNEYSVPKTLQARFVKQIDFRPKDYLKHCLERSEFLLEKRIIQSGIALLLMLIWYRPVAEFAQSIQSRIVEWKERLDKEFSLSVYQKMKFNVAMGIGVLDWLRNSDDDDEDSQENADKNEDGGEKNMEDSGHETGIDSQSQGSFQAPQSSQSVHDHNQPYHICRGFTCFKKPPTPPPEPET
FAD-linked sulfhydryl oxidase ALR, sequence (P55789 whole entry): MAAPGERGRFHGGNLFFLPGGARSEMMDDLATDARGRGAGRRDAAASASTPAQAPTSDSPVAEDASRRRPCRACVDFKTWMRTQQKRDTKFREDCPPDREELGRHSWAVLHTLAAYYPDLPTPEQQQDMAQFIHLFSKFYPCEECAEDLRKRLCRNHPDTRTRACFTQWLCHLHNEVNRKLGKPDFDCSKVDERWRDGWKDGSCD
Cytochrome P450 2C9, sequence (P11712 whole entry): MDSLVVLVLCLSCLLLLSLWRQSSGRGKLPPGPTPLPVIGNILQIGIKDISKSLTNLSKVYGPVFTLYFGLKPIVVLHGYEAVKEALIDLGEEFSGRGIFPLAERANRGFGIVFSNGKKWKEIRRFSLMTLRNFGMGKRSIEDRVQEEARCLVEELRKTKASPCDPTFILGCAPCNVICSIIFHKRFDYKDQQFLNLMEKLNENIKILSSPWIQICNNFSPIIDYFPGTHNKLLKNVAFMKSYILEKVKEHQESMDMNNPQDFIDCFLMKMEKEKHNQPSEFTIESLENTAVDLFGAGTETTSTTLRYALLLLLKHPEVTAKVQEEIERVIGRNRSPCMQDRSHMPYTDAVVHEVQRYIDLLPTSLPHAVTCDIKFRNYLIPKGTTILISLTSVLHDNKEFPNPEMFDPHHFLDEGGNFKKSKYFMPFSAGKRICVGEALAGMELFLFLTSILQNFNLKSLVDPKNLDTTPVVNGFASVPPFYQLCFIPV

CCC(C)[C@H]1CNCCN1CCc1cc(C(F)(F)F)cc(C(F)(F)F)c1 (some centres undefined)
IC50 [1]: > 20 µM (inactive)

Cc1ccc(NC(=O)C(=O)c2ccc(C)cc2)cc1
IC50 (Protein skinhead-1): 98.5 µM (inactive)

CCn1c(S)nnc1-c1ccc2[nH]c(C)c(C)c2c1
EC50 [2]: > 195 µM (not active) | AC50 [3]: 2.49 µM (active)

CCCn1c2ccccc2c2nc3ccccc3nc21
CC50 [4]: > 50 µM (active) | IC50 [1]: > 20 µM (inactive)

CCC1(C)N=C(N)Nc2nc3cc(C)c(C)cc3n21 (centres undefined)
EC50 [5]: > 260 µM (inactive) | AC50 [3]: 4.1 µM (active)

O=C1c2ccccc2C(=O)C12OC2c1ccc(Cl)cc1Cl (centres undefined)
EC50 [6]: 29.6 µM (active) | EC50 [7]: 20.3 µM (active)

COc1ccccc1NS(=O)(=O)c1ccc(C)c(C(=O)N2CCN(c3ccc(O)cc3)CC2)c1
AC50 [3]: 0.022 µM (active) | IC50 [8]: 24.2 µM (active)

CCC(/C=C1\Sc2ccc(OC)cc2N1CCCS(=O)(=O)[O-])=C\c1sc2ccc(OC)cc2[n+]1CC
AC50 [3]: 8.75 µM (active) | AC50 (INS1): 3.3 µM (active)

Cc1[nH]c2ccccc2c1C(c1ccccn1)c1c(C)[nH]c2ccccc12
EC50 [9]: 5.36 µM (active) | EC50 (Streptokinase A): > 150 µM (not active) | EC50 (Streptococcus): 12.1 µM (active) | IC50 (Nonstructural protein 1): > 100 µM (active)

COc1ccc(C(=O)COC(=O)c2ccc(NC(=O)c3ccccc3)cc2)cc1
EC50 [6]: 41.1 µM (active) | EC50 [7]: 49.9 µM (active) | AC50 (Cytochrome P450 2C9): 1.41 µM (inconclusive)

CCOC(=O)N1CCN(S(=O)(=O)c2ccc(C(=O)Nc3nc4c(s3)CC(C)CC4)cc2)CC1 (centres undefined)
EC50 [6]: 1.25 µM (active) | EC50 [7]: 1.7 µM (active)

N#Cc1cncc(C#Cc2ccccc2)c1
IC50 (Protein skinhead-1): 16.9 µM (active)

O=C(CCC(=O)N1CCOc2ccc(Cl)cc21)NCCCN1CCC(Cc2ccccc2)CC1
IC50 [1]: > 20 µM (inactive) | CC50 (Vero): 18.9 µM (active)

COc1cccc(NC(=O)C2CCCN(c3ncnc4c3nc3n4CCCCC3)C2)c1 (centres undefined)
IC50 (Protein skinhead-1): > 100 µM (inactive)

Cc1ccc(S(=O)(=O)N(C)C)cc1NC(=O)CSc1ncc(C(F)(F)F)cc1Cl
EC50 [6]: 88.7 µM (active) | EC50 [7]: 647 µM (active)

Oc1ccc(/C=N/NC(=S)NCCN2CCOCC2)c(O)c1
IC50 (Large T antigen): 7.26 µM (active) | IC50 (Nonstructural protein 1): 6.59 µM (active) | IC50 [8]: 20.6 µM (active)

CCN(CC)CCC(c1ccc(N(C)C)cc1)c1c(OC)cc(OC)c2c(-c3ccccc3)cc(=O)oc12 (centres undefined)
IC50 [1]: > 20 µM (inactive) | IC50 (Nonstructural protein 1): 13.6 µM (active)

O=C(Nc1ccc(Cl)c(Cl)c1)Oc1ccc(NC(=O)c2ccco2)cc1
IC50 (Large T antigen): > 100 µM (active)

CC(=O)Nc1ccc(SCCN2CC[C@@H](C(C)(C)C)CCC2=O)cc1
AC50 [3]: 0.25 µM (active) | IC50 [10]: > 66 µM (inactive) | IC50 [11]: > 66 µM (inactive)

Cc1cc2ccccc2n1CCNC(=O)C1CCCC1
IC50 (Protein skinhead-1): > 100 µM (inactive)

COCOCCn1cc(CN2CCS(=O)(=O)N(Cc3ccc(-c4cccc(N(C)C)c4)cc3)C(C(C)C)C2=O)nn1 (centres undefined)
IC50 (Protein skinhead-1): > 100 µM (inactive)

Cc1ccc(Nc2c(N)c(=O)oc3ccccc23)cc1
EC50 [6]: 13.6 µM (active) | EC50 [7]: 12.3 µM (active) | EC50 [5]: > 260 µM (inactive)

CC1C/C(=N/Nc2ccc([N+](=O)[O-])cc2[N+](=O)[O-])CC(C)(C)C1 (centres undefined)
IC50 (Nonstructural protein 1): 46 µM (active)

CCC(=O)Nc1ccc(SC#N)cc1C
AC50 [3]: 0.497 µM (active) | IC50 [10]: > 66 µM (inactive) | IC50 [11]: > 66 µM (inactive)

Oc1ccc2ccccc2c1N=Nc1ccccc1F
IC50 (Nonstructural protein 1): 20.4 µM (active)

COc1ccc(NCCc2ccccn2)cc1
IC50 (Large T antigen): 19.3 µM (active)

CN(C)c1ccc(NC(=O)CC2NCCNC2=O)cc1 (centres undefined)
IC50 (Large T antigen): 10.1 µM (active)

CNC(C)Cc1ccccc1Sc1ccc(O)cc1 (centres undefined)
IC50 (Large T antigen): 94.4 µM (active) | AC50 [3]: 3.15 µM (active) | AC50 (Cytochrome P450 2C9): 28.2 µM (inconclusive)

Nc1ccc2[nH]c(-c3cccs3)nc2c1
IC50 (Large T antigen): 11.9 µM (active) | IC50 (H9c2): 15.5 µM (active)

CCCCC(=O)Nc1ccc2c3c(cccc13)C(=O)N2CC
IC50 [1]: > 20 µM (inactive)

O=C(Nc1ccncc1)C1CCN(S(=O)(=O)c2cccc(C(F)(F)F)c2)CC1
IC50 [1]: > 20 µM (inactive)

CC(C)C(=O)Nc1ccc(O)c(-c2csc(N)n2)c1
IC50 (Large T antigen): 46.3 µM (active)

Nc1cc(CN2C(=O)c3ccccc3C2=O)cc(Cl)c1O
IC50 (Large T antigen): 8.42 µM (active)

Brc1cccc(-c2nc(-c3ccncc3)no2)c1
IC50 (Protein skinhead-1): 16.6 µM (active)

Nc1nc(-c2ccco2)cs1
IC50 (Large T antigen): 79.2 µM (active)

Cc1cc2nc(NCCCO)n(CC(=O)c3cc(C(C)(C)C)c(O)c(C(C)(C)C)c3)c2cc1C
AC50 [12]: 3.14 µM (active) | IC50 [1]: > 20 µM (inactive) | AC50 (INS1): 8.03 µM (active)
